Consider 2 molecules from US6410555B1, “Tetrahydronaphthyridinyl-carboxamides having anti-convulsant activity” (SmithKline Beecham p.l.c., priority 1998, dated 2002).

SMILES strings stand for the structures.

The assay has as its system maximal (tonic hindlimb extension) electroshock seizures in male rats. As to the kind of experiment: Maximal electroshock seizure (MEST) threshold test, rat model. Format: in vivo. To be noted: 2 mg/kg p.o. at 2 h. How it is done: The maximal electroshock seizure (MEST) threshold test in rodents is particularly sensitive for detecting potential anti convulsant properties ^1. In this model anticonvulsant agents elevate the threshold to electrically-induced seizures whilst proconvulsants lower the seizure threshold. […] The threshold for maximal (tonic hindlimb extension) electroshock seizures in male rats (Sprague Dawley, 80-150 g 6 weeks old) was determined by a Hugo Sachs Electronik stimulator which delivered a constant current (0.3 sec duration; from 1-30 mA in steps of […]). The procedure is similar to that outlined above for mouse and full details are as published by Upton et al,.^4 The percentage increase or decrease in CC50 for each group compared to the control is calculated. […]
In general terms: In the maximal electroshock model the usual endpoint is tonic extension of the hind limbs.

For the molecule `COc1ccc(C(=O)Nc2cnc3c(c2)CN(C)CC3(C)C)cc1C(F)(F)F.Cl` [Example 3, N-(5,6,7,8-Tetrahydro-6,8,8-trimethyl[1,6]naphthyridin-3-yl)-4-methoxy-3-trifluoromethylbenzamide Hydrochloride], the “percentage increase in CC50 compared to the control” value is reported as 314%. With `CCOc1ccc(C(=O)Nc2cnc3c(c2)CN(C)CC3(C)C)cc1Br.Cl` [Example 5, N-(5,6,7,8-Tetrahydro-6,8,8-trimethyl[1,6]naphthyridin-3-yl)-3-bromo-4-ethoxybenzamide Hydrochloride] the figure was 350%.
